From ChEMBL document CHEMBL1201862, “PubChem BioAssay data set” (2004)
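Briefly, cells in 96-well plates were exposed to five compound concentrations for 48 h, and endpoints were estimated by linear interpolation. The concentration for 50% growth inhibition is given as GI50.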 Activity calls are given as the source filed them. Cut-off read from the data, not from the text of the source: active = GI50 up to about 1.1 µM and inactive = higher.

How the values were obtained:
Assay in all cases: DTP human tumour cell line panel, 48 h
[1] = test system: LOX IMVI
[2] = test system: OVCAR-4
[3] = test system: ACHN
[4] = test system: UACC-257
[5] = test system: Malme-3M
[6] = test system: IGROV-1
[7] = test system: 786-0
[8] = test system: SK-MEL-28
[9] = test system: HCT-15
[10] = test system: NCI-H460
[11] = test system: RXF 393
[12] = test system: K562
[13] = test system: PC-3
[14] = test system: CAKI-1
[15] = test system: UO-31
[16] = test system: U-251
[17] = test system: NCI/ADR-RES
[18] = test system: SK-OV-3
[19] = test system: SNB-19
[20] = test system: MOLT-4

Oc1cc(O)c2c(c1)O[C@H](c1cc(O)c(O)c(O)c1)[C@H](O)C2 [EPIGALLOCATECHIN]
GI50 [1]: 27.9 µM (inactive)
GI50 [2]: 14.7 µM (inactive)
GI50 [3]: 21.2 µM (inactive)
GI50 [4]: > 100 µM (inactive)
GI50 [5]: > 100 µM (inactive)
GI50 [6]: 20.4 µM (inactive)
GI50 [7]: 18.2 µM (inactive)
GI50 [8]: 36.6 µM (inactive)
GI50 [9]: 34.8 µM
GI50 [10]: 18.3 µM (inactive)
GI50 [11]: 15.2 µM (inactive)
GI50 [12]: 20.4 µM (inactive)
GI50 [13]: 16.5 µM (inactive)
GI50 [14]: 33.1 µM (inactive)
GI50 [15]: 18.5 µM (inactive)
GI50 [16]: 16.4 µM (inactive)
GI50 [17]: 22.6 µM (inactive)
GI50 [18]: 18.6 µM (inactive)
GI50 [19]: > 100 µM (inactive)
GI50 [20]: 14.6 µM (inactive)

N#Cc1c(-c2ccc(Cl)cc2)c(C#N)c(=O)n(NS(=O)(=O)c2ccccc2)c1O
GI50 [1]: 15.1 µM (inactive)
GI50 [2]: 27.1 µM (inactive)
GI50 [3]: 25.9 µM (inactive)
GI50 [4]: 27.7 µM (inactive)
GI50 [5]: 49 µM (inactive)
GI50 [6]: 24.2 µM (inactive)
GI50 [7]: 29.8 µM (inactive)
GI50 [8]: 26.4 µM (inactive)
GI50 [9]: 22.3 µM
GI50 [10]: 19.9 µM (inactive)
GI50 [11]: 21.8 µM (inactive)
GI50 [12]: 29.1 µM (inactive)
GI50 [13]: 19.6 µM (inactive)
GI50 [14]: 21 µM (inactive)
GI50 [16]: 32.7 µM (inactive)
GI50 [17]: 35.3 µM (inactive)
GI50 [18]: 21.5 µM (inactive)
GI50 [19]: 37 µM (inactive)
GI50 [20]: 22.5 µM (inactive)

COc1cc(S(=O)(=O)Nc2ccc(-c3csc(N4C(=O)C(Cl)C4c4ccccc4O)n3)cc2)ccc1Cl (configuration not stated)
GI50 [1]: 1.49 µM (inactive)
GI50 [2]: 26.4 µM (inactive)
GI50 [3]: 76.7 µM (inactive)
GI50 [4]: 29.1 µM (inactive)
GI50 [5]: 24.1 µM (inactive)
GI50 [6]: 11.9 µM (inactive)
GI50 [7]: 35.1 µM (inactive)
GI50 [8]: 38.1 µM (inactive)
GI50 [9]: > 100 µM
GI50 [10]: 47.5 µM (inactive)
GI50 [11]: 19.9 µM (inactive)
GI50 [12]: 31 µM (inactive)
GI50 [13]: 42.3 µM (inactive)
GI50 [14]: > 100 µM (inactive)
GI50 [15]: 31.9 µM (inactive)
GI50 [17]: > 100 µM (inactive)
GI50 [18]: > 100 µM (inactive)
GI50 [19]: > 100 µM (inactive)
GI50 [20]: 9.59 µM (inactive)

Cc1c(/N=N/c2ccccc2)c(C)n(C2OC(CO)C(O)C(O)C2O)c(=S)c1C#N (configuration not stated)
GI50 [1]: 22.6 µM (inactive)
GI50 [2]: 45.8 µM (inactive)
GI50 [3]: 30.5 µM (inactive)
GI50 [4]: 33.2 µM (inactive)
GI50 [5]: 32.6 µM (inactive)
GI50 [6]: 37.7 µM (inactive)
GI50 [7]: 31.6 µM (inactive)
GI50 [8]: 32.7 µM (inactive)
GI50 [9]: 28.9 µM
GI50 [10]: 31.3 µM (inactive)
GI50 [11]: 33 µM (inactive)
GI50 [12]: 24.4 µM (inactive)
GI50 [13]: 24 µM (inactive)
GI50 [14]: 40.2 µM (inactive)
GI50 [15]: 26.2 µM (inactive)
GI50 [16]: 23.2 µM (inactive)
GI50 [17]: 42.4 µM (inactive)
GI50 [18]: 34 µM (inactive)
GI50 [19]: 34.8 µM (inactive)
GI50 [20]: 20.8 µM (inactive)

O=C1C(Br)=C(Br)C(=O)c2ccc(=O)ccc21
GI50 [1]: 20.6 µM (inactive)
GI50 [2]: 17.5 µM (inactive)
GI50 [3]: 17.6 µM (inactive)
GI50 [4]: 24.7 µM (inactive)
GI50 [5]: 19.9 µM (inactive)
GI50 [6]: > 52.2 µM (inactive)
GI50 [7]: 18.3 µM (inactive)
GI50 [8]: 27 µM (inactive)
GI50 [9]: 18.7 µM
GI50 [10]: 38.8 µM (inactive)
GI50 [11]: 19.2 µM (inactive)
GI50 [12]: 30.7 µM (inactive)
GI50 [13]: > 56.5 µM (inactive)
GI50 [14]: 28.3 µM (inactive)
GI50 [15]: 17.6 µM (inactive)
GI50 [16]: 38.3 µM (inactive)
GI50 [17]: 20 µM (inactive)
GI50 [18]: > 100 µM (inactive)
GI50 [19]: > 100 µM (inactive)
GI50 [20]: 3.36 µM (inactive)

CCOP(=O)(OCC)/C(C#N)=C\c1cccc2ccccc12
GI50 [1]: 20.9 µM (inactive)
GI50 [2]: > 75.3 µM (inactive)
GI50 [3]: > 75.9 µM (inactive)
GI50 [4]: 71.3 µM (inactive)
GI50 [5]: 42.7 µM (inactive)
GI50 [6]: > 82.4 µM (inactive)
GI50 [7]: > 71.4 µM (inactive)
GI50 [8]: 28.2 µM (inactive)
GI50 [9]: 42.7 µM
GI50 [10]: > 91.8 µM (inactive)
GI50 [11]: 31.6 µM (inactive)
GI50 [12]: 31 µM (inactive)
GI50 [13]: 64 µM (inactive)
GI50 [14]: 74.3 µM (inactive)
GI50 [15]: 56.9 µM (inactive)
GI50 [16]: > 67.5 µM (inactive)
GI50 [17]: 52.7 µM (inactive)
GI50 [18]: 45.5 µM (inactive)
GI50 [19]: > 57.1 µM (inactive)
GI50 [20]: 35.4 µM (inactive)

NCc1ccc(C(=O)O)cc1 [AMINOMETHYLBENZOIC ACID]
GI50 [1]: > 100 µM (inactive)
GI50 [2]: > 100 µM (inactive)
GI50 [3]: > 100 µM (inactive)
GI50 [4]: > 100 µM (inactive)
GI50 [5]: > 100 µM (inactive)
GI50 [6]: > 100 µM (inactive)
GI50 [7]: > 100 µM (inactive)
GI50 [8]: > 100 µM (inactive)
GI50 [9]: > 100 µM
GI50 [10]: > 100 µM (inactive)
GI50 [11]: > 100 µM (inactive)
GI50 [12]: > 100 µM (inactive)
GI50 [13]: > 100 µM (inactive)
GI50 [14]: > 100 µM (inactive)
GI50 [15]: > 100 µM (inactive)
GI50 [16]: > 100 µM (inactive)
GI50 [17]: > 100 µM (inactive)
GI50 [19]: > 100 µM (inactive)
GI50 [20]: > 100 µM (inactive)
